The text below walks through data of paper PMC10459814.

Series [1] concerns CT26 murine colon carcinoma cells. Nature of the series: In vivo antitumor efficacy and safety in CT26 tumor-bearing BALB/c mice. To be noted: for tumor weight reduction / relative tumor volume growth rate (T/C): CT26 tumor-bearing BALB/c mice; for tumor weight reduction: 21 days. From the text:
Given its promising in vitro enzymatic potencies, compound NK3 was further evaluated for antitumor efficacy in vivo with a model by injecting immunocompetent BALB/c mice with CT26 murine colon carcinoma cells (Figure 5). CT26 cells, derived from the epithelial glands of BALB/C mice with colon cancer, are commonly employed as a model for investigating immunotherapies and studying host immune responses. […] Dose-dependent growth-inhibitory potency of NK3 was observed (Figure 5B).
Figure 5 In vivo antitumor activity of compound NK3 in CT26 tumor-bearing mice. […] (B) Tumor weight of the excised tumors of each group. (C) Tumor volume of the mice in each group during the observation period. (D) Body weight of the mice from each group at the end of the observation period. Body weight change of each group of mice. The data were presented as the mean ± SD. p < 0.05 (versus the vehicle control group). The antitumor assay in CT26 tumor-bearing mice was carried out in one experiment with previous work.
Pathological analysis of tissue sections from major organs (heart, liver, lung, spleen, and kidney) of CT26 tumor-bearing mice. Hematoxylin and eosin (H&E) were used to stain the organs with representative images captured. The H&E staining of CT26 tumor-bearing mice was carried out in one experiment with previous work.

For the next series, the system named is HepG2. Briefly: MTT cytotoxicity assay, HepG2. The series is classed as cell-based. Particulars: Homo sapiens, mean ± SD. On the procedure:
(§1) The cytotoxic activity of these three compounds was evaluated against HepG2, Hct-116, and SKOV3 cancer cells by MTT assay, using doxorubicin (DOX) as the positive control.

For another series, the system named is SKOV3. Nature of the series: MTT cytotoxicity assay, SKOV3. The series is classed as cell-based. Particulars: Homo sapiens, SK-OV-3, mean ± SD. On the procedure: as §1
(In general: Tetrazolium dyes change colour on reduction, which living cells bring about.)

In another series the test system is Hct-116. Briefly: MTT cytotoxicity assay, Hct-116. The series is classed as cell-based. To be noted: Homo sapiens, mean ± SD. On the procedure:
as §1

In series [2] the target is T1, human IDO1 (Homo sapiens, UniProt P14902). Nature of the series: IDO1 standard enzymatic inhibition assay.
T1 sequence (P14902 whole entry): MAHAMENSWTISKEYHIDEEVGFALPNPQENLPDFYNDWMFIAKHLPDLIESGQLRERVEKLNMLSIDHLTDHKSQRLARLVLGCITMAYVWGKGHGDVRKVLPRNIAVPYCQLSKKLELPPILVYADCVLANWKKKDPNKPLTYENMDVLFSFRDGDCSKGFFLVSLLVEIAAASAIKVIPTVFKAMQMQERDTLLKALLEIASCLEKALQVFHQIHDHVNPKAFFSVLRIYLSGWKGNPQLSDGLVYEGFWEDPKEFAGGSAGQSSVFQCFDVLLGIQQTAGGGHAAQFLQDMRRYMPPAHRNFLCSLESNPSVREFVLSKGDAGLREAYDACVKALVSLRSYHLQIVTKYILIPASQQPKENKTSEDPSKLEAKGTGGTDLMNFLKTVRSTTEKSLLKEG
In the next series the target is recombinant STAT3 (Homo sapiens, UniProt P40763). Nature of the series: SPR binding assay (BIAcore) with STAT3. Particulars: recombinant STAT3, 0.078-10.0 μM, read-out: KD (equilibrium dissociation constant) with STAT3. The procedure: In order to further investigate the direct interaction between NK3 and STAT3, we conducted an SPR binding assay.
Sequence of recombinant STAT3 (P40763 whole entry, species assumed): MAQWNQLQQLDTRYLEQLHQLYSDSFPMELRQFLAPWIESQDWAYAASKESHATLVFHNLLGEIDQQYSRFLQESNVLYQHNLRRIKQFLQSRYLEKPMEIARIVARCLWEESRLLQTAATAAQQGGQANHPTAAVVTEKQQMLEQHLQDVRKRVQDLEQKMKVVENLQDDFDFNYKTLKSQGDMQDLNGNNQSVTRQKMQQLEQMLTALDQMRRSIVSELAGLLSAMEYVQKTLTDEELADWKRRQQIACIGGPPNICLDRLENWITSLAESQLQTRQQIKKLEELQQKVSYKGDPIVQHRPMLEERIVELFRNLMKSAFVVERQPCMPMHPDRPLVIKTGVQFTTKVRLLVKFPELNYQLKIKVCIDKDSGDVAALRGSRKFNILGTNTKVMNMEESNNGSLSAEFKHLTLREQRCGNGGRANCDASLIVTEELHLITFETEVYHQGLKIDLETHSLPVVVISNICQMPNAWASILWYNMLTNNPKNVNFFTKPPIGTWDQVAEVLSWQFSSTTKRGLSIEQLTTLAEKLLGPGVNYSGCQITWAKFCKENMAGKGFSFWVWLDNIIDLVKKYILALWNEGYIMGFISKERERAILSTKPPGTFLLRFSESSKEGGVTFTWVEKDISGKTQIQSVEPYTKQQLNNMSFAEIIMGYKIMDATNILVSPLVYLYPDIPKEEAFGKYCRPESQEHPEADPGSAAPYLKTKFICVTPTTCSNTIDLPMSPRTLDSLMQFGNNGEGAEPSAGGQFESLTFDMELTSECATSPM
Figure 8 The binding affinity of NK3 with recombinant STAT3 determined by the SPR assay. Concentration from top to bottom: 0.078 μM, 0.156 μM, 0.313 μM, 0.625 μM, 1.25 μM, 2.5 μM, 5.0 μM, and 10.0 μM.

Series [3] concerns human liver cancer HepG2 cells xenograft. Briefly: In vivo antitumor efficacy in nude mice bearing HepG2 xenograft. Particulars: for tumor growth inhibition (tumor weight): 21 days. From the text: In order to ascertain the viability of IDO1 as an alternative target for compound NK3, a xenograft model was established by inoculating nude mice with human liver cancer HepG2 cells, subsequent to two injections of two doses of NK3 administered at three-day intervals. […] The antitumor effect of NK3 was also reflected in a delayed increase in xenograft volume (Figure 7C).
Figure 7 In vivo antitumor activity of compound NK3 in nude mice bearing HepG2 xenograft model. (A) The images of the harvested tumors from the mice after administration with NK3 (10 and 20 mg/kg) and the positive control doxorubicin (DOX) (5 mg/kg) every 3 days for 3 weeks. (B) Tumor weight of the excised tumors of each group. (C) Tumor volume of the mice in each group during the observation period. (D) Body weight of the mice from each group at the end of the observation period. Body weight change of each group of mice. The data were presented as the mean ± SD. p < 0.05 (versus the vehicle control group). The antitumor assay in nude mice was carried out in one experiment with previous work. TEXT PRINTED IN THE PICTURE: (B) Dox: 53.0% (5 mg/kg) | (B) NK-3: 61.1% (10 mg/kg); 64.4% (20 mg/kg) DOUBTS OF THE COPYIST ABOUT THIS PICTURE: Panel B: the picture prints no measure for the percentages over the bars (53.0%, 61.1%, 64.4%). The axis reads only 'Tumor weight (g)', so they are copied without a measure.

Series [4] has as its system STAT3 nuclear translocation. Nature of the series: Immunofluorescence staining of IL-6-induced STAT3 nuclear translocation in HepG2 cells. Particulars: 2 μM, IL-6 stimulation 30 min. The series is classed as cell-based, human. The procedure:
The central role of nuclear translocation in the functioning of transcription factors is evident. The activation of STAT3 transcription is reliant on its nuclear translocation and subsequent binding to target DNA [43], so we further investigated the inhibitory effect of NK3 on preventing STAT3 from translocating to the nucleus by immunofluorescence staining. To this end, HepG2 cells were treated with 2 μM NK3 for […], and then IL-6 was added to stimulate STAT3 translocation for 30 min.
Figure 9 NK3 inhibited the nuclear translocation of STAT3. […] Cells were treated with 2 μM NK3 for 12 h with or without pre-treatment with 50 ng/mL of IL-6 for 30 min. Then, cells were fixed and stained with anti-p-STAT3 and DAPI before being subjected to Zeiss LSM700 Confocal Microscope for analysis.

Series [5] deals with T1, human IDO1. Briefly: SPR binding assay (Biacore T200) with IDO1. Particulars: immobilized recombinant IDO1, 0.078-10.0 μM, read-out: KD (equilibrium dissociation constant) with IDO1. On the procedure: A surface plasmon resonance (SPR)-based binding assay was conducted to validate the direct interaction between NK3 and IDO1 protein using a Biacore T200 optical biosensor. This analytical method is valuable for determining the kinetic and thermodynamic parameters of ligand–protein complex formation and is widely employed in the study of enzyme–enzyme/inhibitor interactions. The binding affinity between compound NK3 and IDO1 was assessed utilizing Biacore analysis software, accompanied by measurements of kinetic association and dissociation. As depicted in Figure 3, compound NK3 efficiently interacted with the immobilized protein to induce a concentration-dependent response for association or dissociation, respectively. […] The binding assays confirmed the direct binding of compound NK3 to IDO1 protein.
Figure 3 The binding affinity of NK3 with recombinant IDO1 determined by the SPR assay. Concentration from top to bottom: 0.078 μM, 0.156 μM, 0.313 μM, 0.625 μM, 1.25 μM, 2.5 μM, 5.0 μM, and 10.0 μM.

Structures are written as SMILES. A value given as a limit tells only on which side of the number the result lay.

For the molecule `Cn1cc(C[C@H](N)C(=O)O)c2ccccc21` [Compound 1-MT, 1-methyl-L-tryptophan, reference compound], in [1] (100 mg/kg intraperitoneal), the tumor weight reduction came to 45.6%.
One may read the IC50 as the point on the concentration scale where inhibition reaches its midpoint. Low readings indicate higher potency, high ones lower potency. In the case of `COc1cccc2c1C(=O)c1c(O)c3c(c(O)c1C2=O)C[C@@](O)(C(=O)CO)C[C@@H]3O[C@H]1C[C@H](N)[C@H](O)[C@H](C)O1` [DOX, doxorubicin, reference compound], the half-inhibitory concentration (IC50) was found to be 0.28 ± 0.03 µM in the series on HepG2, 0.58 ± 0.28 µM in the series with SKOV3 and 0.37 ± 0.02 µM in the series on Hct-116.
For the molecule `Nc1nonc1C(=NO)Nc1ccc(F)c(Cl)c1` [IDO5L, reference compound], the IC50 with HepG2, with SKOV3 and with Hct-116 was over 40 µM in each case. In series [1] (100 mg/kg intraperitoneal), this molecule had a tumor weight reduction of 70.9%.
One may read the melting point as the temperature of the solid-liquid transition. `CCCCC(CC)CNC(=O)C(Cc1ccccc1)NC1=C/C(=N/O)c2ccccc2C1=O` (stereo not shown) [NK1, (Z)-N-(2-ethylhexyl)-2-((4-(hydroxyimino)-1-oxo-1,4-dihydronaphthalen-2-yl)amino)-3-phenylpropanamide] yielded a melting point of 120.3 to 121.8 °C. Half-maximal inhibition in the series on HepG2 (IC50) was put at 1.28 ± 0.27 µM. The molecule further displayed a half-maximal inhibitory concentration (IC50) in the series with SKOV3 of 0.95 ± 0.18 µM. Also, the concentration for half-maximal inhibition (IC50) at human IDO1 [2] worked out at 3450 nM. The same molecule returned an IC50 in the series with Hct-116 of 0.49 ± 0.14 µM.
Consider `O=C1C(NC(Cc2ccccc2)C(=O)NCCc2ccccc2)=C/C(=N/O)c2ccccc21` (stereo not shown) [NK2, (Z)-2-((4-(hydroxyimino)-1-oxo-1,4-dihydronaphthalen-2-yl)amino)-N-phenethyl-3-phenylpropanamide], for which the melting point is 197.2 to 198.6 °C. The IC50 with HepG2 worked out at 5.08 ± 0.33 µM. The molecule also returned an IC50 in the series with SKOV3 of 4.25 ± 1.65 µM. The midpoint of inhibition against human IDO1 [2], the IC50, lay at 8220 nM. Moreover, the half-inhibitory concentration (IC50) with Hct-116 was 5.84 ± 1.34 µM.
What is called Kd is the free concentration of one partner at which half of the binding sites on the other are occupied at equilibrium, for simple one-to-one binding. On to `CCCNC(=O)C(Cc1ccccc1)NC1=C/C(=N/O)c2ccccc2C1=O` (stereo not shown) [NK3, (Z)-2-((4-(hydroxyimino)-1-oxo-1,4-dihydronaphthalen-2-yl)amino)-3-phenyl-N-propylpropanamide], for which the 50% inhibitory concentration (IC50) with HepG2 is 0.16 ± 0.04 µM; in the series on SKOV3, 0.48 ± 0.23 µM; at human IDO1 [2], 60 nM; in the series with Hct-116, 0.18 ± 0.04 µM. Further, the dissociation constant (Kd) at recombinant STAT3 is 170 nM; on human IDO1 [5], 160 nM. Also, the “tumor growth inhibition (tumor weight)” value in series [3] (10 mg/kg intravenous every 3 days) was found to be 61.1%; in series [3] (20 mg/kg intravenous every 3 days), 64.4%. In addition, in series [3] (compared to DOX), the “body weight / tolerability” value is on record as “did not cause significant weight loss”. Further, the STAT3 nuclear translocation entry in [4] was “significantly inhibited”. The “relative tumor volume growth rate (T/C)” value in series [1] (50 mg/kg) was found to be 56.00%; in series [1] (100 mg/kg), 29.07%. For the same molecule, the tumor weight reduction came to 42.8% in series [1] (50 mg/kg intraperitoneal) and 65.8% in series [1] (100 mg/kg intraperitoneal). For the same molecule, the “pathology (H&E) of heart, liver, spleen, lung, kidney” value in [1] (CT26 tumor-bearing mice) was “no obvious morphological and pathological changes”. The “body weight change versus vehicle” value in series [1] (CT26 tumor-bearing mice, 21 days of treatment) is “no significant change in body weight”.
